{"source": "patent US20010028879A1", "about": "“Inhibition of graft versus host disease” (priority 1998, published 2001)", "test_system": "Peripheral human blood mononuclear cells PBMCs", "conditions": "for Cytokine Profile: after 7 days", "description": "Peripheral human blood mononuclear cells PBMCs, which is a collection of white blood cells comprising about 40% T-cells, were stressed by contact with aqueous solutions of hydrogen peroxide, of various concentrations, for 20 minutes. Their immediate survival was measured, along with their immediate phytohaemagglutinin (PHA) response. Then their survival after 24 hours was measured, followed by their PHA response (tritiated thymidine uptake following mitogenic stimulation with PHA) and cytokine profile after 7 days.", "note": "Like-named read-outs stand apart in the source and are kept apart here.", "data": [{"smiles": "OO", "note": "[Example H2O2, hydrogen peroxide]", "values": [{"measurement": "24 hr survival %", "setting": "100 μmole/L H2O2, 20 minutes", "value": 100, "unit": "%"}, {"measurement": "Immediate PHA response", "setting": "100 μmole/L H2O2, 20 minutes", "value": 2000}, {"measurement": "Immediate survival %", "setting": "100 μmole/L H2O2, 20 minutes", "value": "80-90%"}, {"measurement": "Cytokine Profile", "setting": "100 μmole/L H2O2, 20 minutes", "value": "IFN↓"}, {"measurement": "24 hr survival %", "setting": "300 μmole/L H2O2, 20 minutes", "value": 50, "unit": "%"}, {"measurement": "Immediate PHA response", "setting": "300 μmole/L H2O2, 20 minutes", "value": 2000}, {"measurement": "Immediate survival %", "setting": "300 μmole/L H2O2, 20 minutes", "value": "80-90%"}, {"measurement": "Cytokine Profile", "setting": "300 μmole/L H2O2, 20 minutes", "value": "IFN↓"}, {"measurement": "24 hr survival %", "setting": "1 mmole/L H2O2, 20 minutes", "value": 40, "unit": "%"}, {"measurement": "Immediate PHA response", "setting": "1 mmole/L H2O2, 20 minutes", "value": 400}, {"measurement": "Immediate survival %", "setting": "1 mmole/L H2O2, 20 minutes", "value": "80-90%"}, {"measurement": "Cytokine Profile", "setting": "1 mmole/L H2O2, 20 minutes", "value": "IFN↓"}, {"measurement": "24 hr survival %", "setting": "3 mmole/L H2O2, 20 minutes", "value": 40, "unit": "%"}, {"measurement": "Immediate PHA response", "setting": "3 mmole/L H2O2, 20 minutes", "value": 400}, {"measurement": "Immediate survival %", "setting": "3 mmole/L H2O2, 20 minutes", "value": "80-90%"}, {"measurement": "Cytokine Profile", "setting": "3 mmole/L H2O2, 20 minutes", "value": "IFN↓"}]}]}
